Data as given in US6573246B1, “Modified ether glyceroglycolipids” (The Liposome Company, Inc., priority 1995, dated 2003).
Like-named read-outs stand apart in the source and are kept apart here. One block for each molecule: values may come before it.

Columns and labels:
Lewis Lung cells = test: growth inhibition of Lewis Lung cells in culture; format: cell-based, murine; conditions: mean ± standard deviation, read-out: Gl50 (concentration of lipid required to inhibit the growth of fifty percent of the cells in culture)
Procedure: (§1) The Gl50 values for edelfosine (1), 2′-deoxy-β-D-arabinopyranosyl (2), 2′-deoxy-α-D-arabinopyranosyl (3), 2-O-methyl-β-D-glucopyranosyl (4), 2′-O-methyl-β-D-mannopyranosyl (5) and α-D-mannopyransoyl (6) on A-549, MCF-7, Lewis Lung, MCF-7/Adr (adriamycin-resistant), P388, P-388/Adr, L1210 and L1210/vmdr cells were determined and are set forth below (see Table 4) as the concentration (micromolar) of lipid required to inhibit the growth of fifty percent of the cells in culture.
(§2) Gl50 values are given as the mean ± standard deviation; the Gl50 value from each experiment “n” was generated from three individual wells on two separate plates (six total wells); n=1 for compounds 3-6; n=2 for most cell lines treated with compound 2 ^an=3; ^bn=2; ^cn=6; ^dn=8.

P-388/Adr cells = test: growth inhibition of P388/adr cells in culture; format: cell-based, murine; conditions: mean ± standard deviation, read-out: Gl50 (concentration of lipid required to inhibit the growth of fifty percent of the cells in culture)
Procedure: as §1, §2

[1] = system: MCF-7 (breast adenocarcinoma) cells; test: growth inhibition of MCF-7 cells in culture; format: cell-based, human; conditions: MCF7, mean ± standard deviation, read-out: Gl50 (concentration of lipid required to inhibit the growth of fifty percent of the cells in culture)
Procedure: (§3) Human epithelial cancer cell lines were grown from frozen stocks originally obtained from the ATCC, in media commonly used for growing these cells in culture. For example, A549 cells (non-small cell lung adenocarcinoma) were cultured in Ham's F-12 medium, T84 cells (colon carcinoma) were cultured in a 1:1 mixture of F-12 and DMEM while MCF-7 (breast adenocarcinoma) and A427 (large cell lung carcinoma) cells were cultured in DMEM. The media were supplemented with 10% fetal bovine serum, penicillin (50 U/ml), streptomycin (50 micogram/ml) and fungizone (0.5 microgram/ml). OVCAR-3 cells (ovarian adenocarcinoma) were cultured in RPMI 1640 medium supplemented with 20% FBS and 10 microgram/ml insulin.
(§4) Cells were subcultured into 24-well plates and the cell number was monitored daily. When the cells were in log phase, the media was replaced with one containing the required drug concentration, and the cells were incubated for 72 h. The increase in cell numbers relative to control wells (without any drug) was determined after the incubation. Stock solutions of the drugs ([…]) were prepared in ethanol and stored at −20 deg. C. Etherlipid solutions (30 micromolar) in the appropriate media were prepared fresh on the day of the experiment and serially diluted to give the required concentrations. The final concentration of ethanol in all wells was 0.1% (v/v).
as §2

HT29 cells = test: growth inhibition of HT29 cells in culture; format: cell-based; conditions: read-out: Gl50 (concentration of lipid required to inhibit the growth of fifty percent of the cells in culture)
[2] = system: MCF-7/Adr (adriamycin-resistant) cells; test: growth inhibition of MCF7/adr cells in culture; format: cell-based, human; conditions: mean ± standard deviation, read-out: Gl50 (concentration of lipid required to inhibit the growth of fifty percent of the cells in culture)
Procedure: as §1, §2

P388 cells = test: growth inhibition of P388 cells in culture; format: cell-based, murine; conditions: mean ± standard deviation, read-out: Gl50 (concentration of lipid required to inhibit the growth of fifty percent of the cells in culture)
Procedure: as §1, §2

[3] = system: A549 cells (non-small cell lung adenocarcinoma); test: growth inhibition of A549 cells in culture; format: cell-based, human; conditions: mean ± standard deviation, read-out: Gl50 (concentration of lipid required to inhibit the growth of fifty percent of the cells in culture)
Procedure: as §3, §4, §2

L1210 cells = test: growth inhibition of L1210 cells in culture; format: cell-based; conditions: mean ± standard deviation, read-out: Gl50 (concentration of lipid required to inhibit the growth of fifty percent of the cells in culture)
Procedure: as §1, §2

L1210/vmdr cells = test: growth inhibition of L1210/vmdr cells in culture; format: cell-based; conditions: mean ± standard deviation, read-out: Gl50 (concentration of lipid required to inhibit the growth of fifty percent of the cells in culture)
Procedure: as §1, §2

[4] = system: OVCAR-3 cells (ovarian adenocarcinoma); test: growth inhibition of OVCAR-3 cells in culture; format: cell-based, human; conditions: for growth: increase in cell numbers relative to control wells (control = 100): OVCAR-3, 72 h
Procedure: as §3, §4

IC50 (P-388/Adr cells): 10.2 ± 0.34 µM
IC50 [1]: 6.93 ± 0.12 µM
IC50 (HT29 cells; mean ± standard deviation): 7.59 ± 0.23 µM
IC50 [2]: 12.8 ± 0.85 µM
IC50 (P388 cells): 12.7 ± 0.78 µM
IC50 [3]: 9.9 ± 0.99 µM
IC50 (L1210 cells): 7.02 ± 0.49 µM
IC50 (L1210/vmdr cells): 7.09 ± 0.33 µM
Structure (SMILES): CCCCCCCCCCCCCCCCOC[C@H](CO[C@H]1C[C@H](O)[C@H](O)CO1)OC [compound 2, 1-O-Hexadecyl-2-O-methyl-3-O-(2′-deoxy-β-D-arabinopyransoyl)-sn-glycerol]
IC50 (Lewis Lung cells): 11.1 ± 0.49 µM

IC50 ([4]; Homo sapiens, OVCAR-3 ovarian cancer cell line, read-out: Gl50 (the source's name)): 24 µM
IC50 (P-388/Adr cells; Mus musculus): 6.39 µM
IC50 ([1]; Homo sapiens): 9.66 µM
IC50 (HT29 cells; Homo sapiens, HT-29, mean ± standard deviation): 2.2 µM
IC50 ([2]; Homo sapiens, NCI/ADR-RES): 30.4 µM
IC50 (P388 cells; Mus musculus): 4.33 µM
IC50 ([3]; Homo sapiens): 5.05 µM
IC50 (L1210 cells; Mus musculus): 3.32 µM
IC50 (L1210/vmdr cells; Mus musculus): 11 µM
Structure (SMILES): CCCCCCCCCCCCCCCCCCOCC(COP(=O)([O-])OCC[N+](C)(C)C)OC (stereo not drawn) [compound 1, edelfosine, reference compound]
IC50 (Lewis Lung cells; Mus musculus, Lewis lung carcinoma): 30.2 µM
growth: increase in cell numbers relative to control wells (control = 100) ([4]; lipid concentration 5 μM): 105.8 ± 8.5
growth: increase in cell numbers relative to control wells (control = 100) ([4]; lipid concentration 10 μM): 77.5 ± 1.0
growth: increase in cell numbers relative to control wells (control = 100) ([4]; lipid concentration 15 μM): 70.7 ± 9.9
growth: increase in cell numbers relative to control wells (control = 100) ([4]; lipid concentration 20 μM): 68.7 ± 13.6
growth: increase in cell numbers relative to control wells (control = 100) ([4]; lipid concentration 30 μM): 20.4 ± 8.1
